Experimental data from US20240287065A1, “COMPOUND AS CDK KINASE INHIBITOR AND USE THEREOF” (TYK MEDICINES (ZHENGZHOU) , INC., priority 2021, published 2024).
Read-outs that look alike come from different tables or passages of the source.

How the values were obtained:
HCC1806 cells = assay: Cell proliferation inhibition assay (MTT, 7 days); type: cell-based; conditions: HCC1086 [sic], 7 days incubation
Procedure: (§1) MCF7, T47D, OVCAR3 and HCC1806 cells were inoculated in 96-well plates at 3000, 3000, 2500, and 2000 cells/well, respectively, and cultured overnight at 37° C., 5% C02 incubator.
(§2) 1. […] Then 2.5 μl of the stock solution was dissolved in 497.5 μl of DMSO-free medium, and then a 3-fold serial gradient dilution was performed with 0.1% DMSO medium for a total of 9 concentrations, and the concentrations of the compounds after dilution were as follows: • 10000 nM, 3333.33 nM, 1111.11 nM, 370.34 nM, 123.45 nM, 41.15 nM, 13.72 nM, 4.57 nM, and 1.52 nM. • b) After fully mixing, 20 μL of compound solutions were added into cell culture plates containing 80 μL of cells respectively, with 4 replicate wells for each concentration. • c) The cells were transferred to an incubator and incubated for 7 days, and exchanged with fresh culture medium containing the same concentration of compounds when incubated to day 4. 2. MTT assay • a) The cell culture plate was taken out and 10 μL of 5 mg/ml MTT was added to the hood. • b) The cell culture plate was put back into the incubator and continued to incubate for 3 hours. • c) The cell culture plate was taken out to remove the culture medium, and 100 μL of isopropanol (0.4 mMHCl, 0.4% NP40) was added to the plate, and the plate was shaken on a shaker at room temperature for 30 minutes and read at 570 nm. 3. Data analysis
(§3) The survival rate (% Cell Survival) was calculated using the following equation:
(§4) % Cell Survival=100%×(OD_Sample−OD_LCave)/(OD_HC−OD_LCave) • OD_HC: 0.1‰ cell readings of DMSO control • OD_Sample: cell readings of compound addition • OD_LC: readings of blank medium • Analyed by Prizm: Dose-response-Inhibition Log(inhibitor) vs response (three parameters for the best fit)
(§5) IC50 (nM) values were calculated by concentration-response curve fitting.

MCF7 cells = assay: Cell proliferation inhibition assay (MTT, 7 days); type: cell-based; conditions: 7 days incubation
Procedure: as §1, §2, §3, §4, §5

OVCAR3 cells = assay: Cell proliferation inhibition assay (MTT, 7 days); type: cell-based; conditions: 7 days incubation
Procedure: as §1, §2, §3, §4, §5

T47D cells = assay: Cell proliferation inhibition assay (MTT, 7 days); type: cell-based; conditions: 7 days incubation
Procedure: as §1, §2, §3, §4, §5

MCF-7-Palbo-R cells = assay: MCF-7-Palbo-R cell antiproliferative assay (BrdU ELISA); type: cell-based; conditions: for IC50: 72 hours, BrdU; for Bottom(%): bottom of inhibition curve; for Top(%): top of inhibition curve
Procedure: 1. Experimental Materials • MCF-7/palbo-R • EMEM medium (ATCC, 30-2003); DMEM/F12 medium (Gibco-1 1330-032) • Fetal bovine serum (cellmax-SA21 1.02) • DMSO (SIGMA, D2650) • BrdU ELISA cell proliferation assay kit (Roche, 11647229001) • ELISA (e.g. MD-SpectraMax ID5 or EnVision)
2. Experimental protocol • 1. Cell spreading • 1) Cells were counted, the concentration of cell suspension was adjusted • 2) The MCF7/Palbo-R cell suspension was seeded in 96-well plates at […] volume to make the number of cells per well is 4000-5000; • 3) Blank control group was added with 90 μl of culture medium; • 2. […] A 3-fold serial gradient dilution was performed with 0.1% DMSO medium for a total of 9 concentrations, and the concentrations of the compounds after dilution were as follows: • 10000 nM, 3333.33 nM, 1111.11 nM, 370.34 nM, 123.45 nM, 41.15 nM, 13.72 nM, 4.57 nM, and 1.52 nM. • b) After 72 hours of compound treatment. • 1) A 10 mM of Brdu stock solution was diluted with RPMI medium and added to a 96-well plate at 20 uL/well and shaken at 350 rpm for 10 minutes. • 2) The 96 well plate was placed back into the incubator for 1 or 2 hours. • 3) After the medium was removed from the 96-well plate, 200 ul/well of Fixation/Denaturation solution was added and incubated for 30 minutes at room temperature. • 4) The fixation solution was removed and 100 ul of peroxidase-coupled anti-Brdu antibody solution (antibody dilution prepared at 1:100 dilution) was added, • and incubated at 350 rpm for 1 hour at room temperature. • 6) The 96-well plate was washed three times with 300 ul/well of PBS. • 8) 100ul of peroxidase substrate solution was added and shaken at 350 rpm for about 10-20 minutes at room temperature, • until the DMSO-treated cell control wells turn a medium blue color. If a color is too dark, it will cause the absorbance value to out of the reading range. • 9) The reaction was terminated by the addition of 25 ul of 1 M sulfuric acid. Shake to ensure uniform color. • 10) The absorbance at 450 nm was recorded. • 3. Data analysis • The inhibition rate is calculated using the following equation:
IR (%)=(1−(RLU compound−RLU blank)/(RLU control−RLU blank))*100%.

CDK2/CycE1 = CDK2/CycE1 (Homo sapiens, UniProt P24941); assay: Enzyme activity test; type: biochemical;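 also: values come from the source column headed CDK2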
Procedure: (§6) • 1. The test compounds and pabocinib were configured into a […] solution of DMSO; • 2. 20 nL of stock solution was transferred to a 384-well plate using Echo550. DMSO was used as a blank control.
(§7) • 1. according to the following table to prepare 1.3X enzyme solution containing enzyme, substrate and cofactor; • 2. 15 μL of 1.3X enzyme solution was added to each well and the mixture was incubated for 30 min at room temperature; • 3. 5 μL of ATP solution was added to initiate the reaction. The final volume of each well was 20 μL; • 4. After incubation for 150 min at room temperature, 75 μL of termination buffer solution was added to terminate the experiment; • 5. The samples were analyzed using EZ reader.
(§8) The % inhibition was calculated using the following equation
(§9) The one treated with DMSO is the positive control (PC)
(§10) The one without enzyme is the negative control (NC)
(§11) % Inhibition=100-100*((CRPC−CRsample)/(CRPC−CRNC))

CDK4/CycD3 = CDK4/CycD3 (Homo sapiens, UniProt P11802); assay: Enzyme activity test; type: biochemical;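 also: values come from the source column headed CDK4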
CDK4/CycD3, sequence (P11802 whole entry, species assumed): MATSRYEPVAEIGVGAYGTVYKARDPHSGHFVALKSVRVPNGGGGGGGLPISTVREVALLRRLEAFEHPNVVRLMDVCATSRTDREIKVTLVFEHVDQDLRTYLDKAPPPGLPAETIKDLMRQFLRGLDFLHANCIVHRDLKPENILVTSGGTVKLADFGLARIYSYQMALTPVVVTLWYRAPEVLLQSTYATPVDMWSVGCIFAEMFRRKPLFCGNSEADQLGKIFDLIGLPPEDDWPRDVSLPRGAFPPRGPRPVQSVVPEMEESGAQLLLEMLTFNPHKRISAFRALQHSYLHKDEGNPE
CDK4/CycD3, sequence (P30281 whole entry partner, species assumed): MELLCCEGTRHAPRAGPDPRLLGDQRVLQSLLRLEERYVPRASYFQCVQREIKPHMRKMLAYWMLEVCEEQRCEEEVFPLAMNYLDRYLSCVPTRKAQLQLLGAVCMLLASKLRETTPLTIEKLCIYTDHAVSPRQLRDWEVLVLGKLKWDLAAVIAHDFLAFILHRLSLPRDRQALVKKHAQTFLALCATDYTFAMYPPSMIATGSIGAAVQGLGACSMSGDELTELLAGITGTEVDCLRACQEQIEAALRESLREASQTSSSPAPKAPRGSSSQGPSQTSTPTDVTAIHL
Procedure: as §6, §7, §8, §9, §10, §11

CDK6/CycD1 = CDK6/CycD1 (Homo sapiens, UniProt Q00534); assay: Enzyme activity test; type: biochemical;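 also: values come from the source column headed CDK6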
CDK6/CycD1, sequence (Q00534 whole entry, species assumed): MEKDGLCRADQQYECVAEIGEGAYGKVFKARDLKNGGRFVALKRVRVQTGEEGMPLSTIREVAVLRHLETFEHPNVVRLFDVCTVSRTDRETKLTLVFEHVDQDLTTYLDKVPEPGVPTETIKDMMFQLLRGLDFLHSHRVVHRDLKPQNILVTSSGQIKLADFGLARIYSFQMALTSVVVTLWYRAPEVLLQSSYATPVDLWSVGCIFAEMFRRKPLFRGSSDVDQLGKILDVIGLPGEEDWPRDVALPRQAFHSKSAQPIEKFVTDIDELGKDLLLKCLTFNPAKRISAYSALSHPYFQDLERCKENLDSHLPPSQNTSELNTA
CDK6/CycD1, sequence (P24385 whole entry partner, species assumed): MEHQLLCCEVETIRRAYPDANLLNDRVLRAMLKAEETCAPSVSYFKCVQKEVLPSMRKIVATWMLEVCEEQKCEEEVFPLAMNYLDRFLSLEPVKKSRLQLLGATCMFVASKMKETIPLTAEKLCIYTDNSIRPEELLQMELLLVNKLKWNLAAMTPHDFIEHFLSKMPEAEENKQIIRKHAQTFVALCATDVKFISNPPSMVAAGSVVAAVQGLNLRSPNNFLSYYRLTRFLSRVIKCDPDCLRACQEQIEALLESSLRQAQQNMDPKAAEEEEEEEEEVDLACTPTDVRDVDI
Procedure: as §6, §7, §8, §9, §10, §11

xMCF-7/Palbo-R cells = assay: xMCF-7/Palbo-R xenograft tumor model; type: in vivo; conditions: 20 mg/kg, oral tube feeding twice daily for 20 days, Balb/c nude female mice
Procedure: To establish a xenograft tumor model, 1×10^7 xMCF-7/Palbo-R cells were suspended in 0.2 mL of a mixture of Matrigel and […] (1:1) and injected subcutaneously into 6-8 week-old Balb/c nube female mice. Tumor growth was observed periodically, and the volume (volume=½×(length×width 2)) was measured with a vernier caliper. When the tumors grew to an average volume of 100˜150 mm3, the drug was administered to mice (12 days after inoculation) in random groups according to the tumor size and their body weights. […] The drugs were administered by oral tube feeding twice daily for 20 days. Tumor volume and animal weight were measured twice a week and continued until the end of the experiment. Dosing day was defined as day 0. Measurement time points were day 0, day 3, day 7, day 10, day 14, day 17 and day 20. All mice were euthanized by cervical dislocation. At the end of the experiment, tumors were collected and weighed to calculate TGI values (see Table 4).

OVCAR-3 cells = assay: OVCAR-3 xenograft tumor model; type: in vivo; conditions: BALB/c nude female mice
Procedure: OVCAR-3 cells were cultured in RPMI1640 culture medium containing 20% fetal bovine serum and 10 μg/mL Insalin. Cells in the exponential growth phase were collected, and the cells were resuspended in the mixed solution of PBS and Matrigel in a ratio of 1:1 to a suitable concentration for subcutaneous tumor inoculation in nude mice.
To establish a xenograft tumor model, 1×10^7 OVCAR-3 cells were suspended in 0.2 mL of a mixture of PBS and Matrigel (1:1) and injected subcutaneously into 6-8-week-old BALB/c nube female mice on the right back. Tumor growth was observed periodically, and the volume (volume=½[…](length×width 2)) was measured with a vernier caliper. When the tumors grew to an average volume of 100˜150 mm^3, the drug was administered to mice (27 days after inoculation) in random groups according to the tumor size and their body weights. […] Tumor volume and animal weight were measured twice a week and continued until the end of the experiment. Dosing day was defined as day 0. Measurement time points were day 0, day 3, day 7, day 10, day 14, day 17 and day 21. All mice were euthanized by cervical dislocation. At the end of the experiment, tumors were collected and weighed to calculate TGI values (see Table 5).

MV4-11 cells = assay: MV4-11 xenograft tumor model; type: in vivo; conditions: 20 mg/kg, oral tube feeding once a day for 15 days, NOD/SCID mice
Procedure: MV-4-11 cells were cultured in IMEM culture medium containing 10% fetal bovine serum. Cells in the exponential growth phase were collected, and the cells were resuspended in PBS to a suitable concentration for subcutaneous tumor inoculation in nude mice.
To establish a xenograft tumor model, 5×10^6 MV4-11 cells were suspended in 0.1 mL of a 1:1 mixture of PBS and Matrigel and injected subcutaneously into the right dorsal side of 6-8-week-old NOD/SCID mice. Tumor growth was observed periodically, and the volume (volume=½×(length×width^2)) was measured with a vernier caliper. When the tumors grew to an average volume of 100˜150 mm^3, the drug was administered to mice (12 days after inoculation) in random groups according to the tumor size and their body weights. […] Among them, the mice in the Vehicle, 10 mg/kg TY-3301, 10 mg/kg C3, and 20 mg/kg C3 groups were administered twice a day by oral tube feeding for 15 days, and the mice in the 20 mg/kg TY-3300 group were administered once a day by oral tube feeding for 15 days. Tumor volume and animal weight were measured twice a week and continued until the end of the experiment. Dosing day was defined as day 0. Measurement time points were day 0, day 3, day 7, day 10, day 14, and day 15. All mice were euthanized by cervical dislocation. At the end of the experiment, tumors were collected and weighed to calculate TGI values (see Table 6).

IC50 (HCC1806 cells; Homo sapiens, HCC1806, 168 h) [nM] | IC50 (MCF7 cells; Homo sapiens, 168 h) [nM] | IC50 (OVCAR3 cells; Homo sapiens, OVCAR-3, 168 h) [nM] | IC50 (T47D cells; Homo sapiens, 168 h) [nM] | IC50 (MCF-7-Palbo-R cells; read-out: AbsIC50) [nM] | IC50 (MCF-7-Palbo-R cells; read-out: ReIC50) [nM] | IC50 (CDK2/CycE1) [nM] | IC50 (CDK4/CycD3) [nM] | IC50 (CDK6/CycD1) [nM] | IC50 (HCC1806 cells) [nM] | IC50 (MCF7 cells) [nM] | IC50 (OVCAR3 cells) [nM] | IC50 (T47D cells) [nM] | Molecule | Bottom(%) (MCF-7-Palbo-R cells) | Top(%) (MCF-7-Palbo-R cells) | TGI (xMCF-7/Palbo-R cells) [%] | TGI (OVCAR-3 cells; 30 mg/kg, oral tube feeding twice daily for 21 days) [%] | TGI (OVCAR-3 cells; 50 mg/kg, oral tube feeding twice daily for 21 days) [%] | TGI (OVCAR-3 cells; 60 mg/kg, oral tube feeding once daily for 21 days) [%] | TGI (MV4-11 cells) [%]
≤ 50 | 50 to 5200 | ≤ 50 | ≤ 50 | 26 | 26 | < 10 | < 10 | < 10 |  |  |  |  | C[C@@]1(O)CCC[C@H]1n1c(=O)c(OC(F)F)cc2cnc(NC3CCN(S(=O)(=O)c4ccc(F)cc4)CC3)nc21 [Example 12] | 7.117 | 99.196 |  |  |  |  | 
≤ 50 | ≤ 50 | ≤ 50 | ≤ 50 |  |  | < 10 | < 10 | < 10 |  |  |  |  | C[C@@]1(O)CCC[C@H]1n1c(=O)c(OC(F)F)cc2cnc(NC3CCN(S(=O)(=O)c4ccccn4)CC3)nc21 [Example 27] |  |  | 61.5 |  |  |  | 
≤ 50 | ≤ 50 | ≤ 50 | 50 to 5200 |  |  | < 10 | < 10 | < 10 |  |  |  |  | [2H]C1(Nc2ncc3cc(OC(F)F)c(=O)n([C@@H]4CCC[C@@]4(C)O)c3n2)CCN(S(C)(=O)=O)CC1 [Example 29] |  |  |  | 69 | 74.8 |  | 
 |  |  |  | 4010 | 7090 |  |  |  | > 1000 | ≤ 50 | > 1000 | 50 to 5200 | Palbociclib [reference compound] | −3.542 | 68.840 |  |  |  | 27.7 | 39
